In article PMC12064818, “A general assay platform to study protein pharmacology using ligand-dependent structural dynamics” (Nature Communications, 2025):
Where a name gives a salt, the structure may show the parent alone. Read-outs that look alike come from different tables or passages of the source.

Key:
PKA = conditions: cited from earlier work
PKA-N-HiBiT = PKA-N-HiBiT (Homo sapiens, UniProt P17612); experiment: SDR assay, PKA-N-HiBiT
[1] = biological target: T1, ABL1-N-HiBiT kinase domain (Homo sapiens, UniProt P00519); experiment: SDR assay, ABL1-N-HiBiT; conditions: for ABL1 SDR pSDR50: heatmap data, 128 kinase inhibitors; for EC50: read-out: SDR Ave SDR50
T1 sequence (P00519 233-500): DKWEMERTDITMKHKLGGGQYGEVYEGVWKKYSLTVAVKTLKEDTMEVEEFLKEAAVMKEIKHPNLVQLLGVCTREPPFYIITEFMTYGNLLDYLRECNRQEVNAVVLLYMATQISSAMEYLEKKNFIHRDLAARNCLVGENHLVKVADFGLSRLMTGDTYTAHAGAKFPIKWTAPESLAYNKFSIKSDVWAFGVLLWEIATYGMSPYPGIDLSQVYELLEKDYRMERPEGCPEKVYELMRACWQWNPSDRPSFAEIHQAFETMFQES

[2] = annotation yes/no for kinase library compound, source not given
[3] = PKA-N-HiBiT qHTS, SDR assay, average maximal response
[4] = ABL1-N-HiBiT qHTS, SDR assay, average maximal response
[5] = ABL1-N-HiBiT qHTS, average maximal SDR response
[6] = ABL1-N-HiBiT qHTS, SDR assay, average
[7] = ABL1-N-HiBiT qHTS, average, unit inferred

SDR Ave Max Response (PKA-N-HiBiT; [3]) | SDR Ave Max Response [1, 5] | SMILES | Annotated PKA activity (PKA; [2]) | SDR Ave Max Response [1, 4] | further results
3.65 |  | Cc1sc2c(c1C)C(c1ccc(Cl)cc1)=N[C@@H](CC(=O)Nc1ccc(OCCOCCOCCOCCNc3cccc4c3C(=O)N(C3CCC(=O)NC3=O)C4=O)cc1)c1nnc(C)n1-2 (some centres unmarked) [ARV-825] | no | 5.73 | 
63.28 | -4.45 | NC1(C(=O)N[C@@H](CCO)c2ccc(Cl)cc2)CCN(c2nc[nH]c3nccc2-3)CC1 [AZD-5363] | yes |  | 
-0.36 | 8.96 | S=C(NCc1ccc2c(c1)OCO2)N1CCN(c2ncnc3c2oc2ccccc23)CC1 [Amuvatinib] | no |  | 
-3.80 | 7.50 | Cc1cccc(/C=N/Nc2cc(N3CCOCC3)nc(OCCc3ccccn3)n2)c1 [Apilimod] | no |  | 
10.58 | 21.22 | C[C@@H]1CCNC(=O)c2cc3ccc(C(=O)Nc4nc5ccccc5n4CCCN(C)C)cc3n21 [BIX-02565] | no |  | 
2.85 | -18.17 | Cc1ccccc1-n1c([C@H](C)Nc2nc(N)nc3[nH]cnc23)nc2cccc(C)c2c1=O [CAL-130 Hydrochloride] | no |  | SDR Ave pSDR50 ([1]; ABL1-N-HiBiT qHTS, average): 5.40; EC50 [1, 7]: 4.04 µM
3.69 |  | Cc1cc(F)ccc1-c1nc(NC(CO)CO)nc2c1ccc(=O)n2-c1c(F)cccc1F [Dilmapimod] | no | -3.68 | 
10.49 |  | Cn1ncc(NC(=O)c2nc(-c3c(F)cccc3F)sc2N)c1N1CC[C@@H](N)[C@H](F)CC1 [GDC-0339] | no | 12.78 | 
2.68 | 10.66 | COc1ccc(-n2c(C)c([N+](=O)[O-])c3ccc(O)cc32)cc1 [ID-8] | no |  | 

SMILES | SDR Ave Max Response (PKA-N-HiBiT; [3]) | SDR Ave Max Response [1, 5] | Annotated PKA activity (PKA; [2]) | SDR Ave Max Response [1, 4] | further results
O=C(NC1CCNCC1)c1n[nH]cc1NC(=O)c1c(Cl)cccc1Cl [AT-7519] | -18.47 | 9.60 | no |  | 
CCn1nc(C2CCN(C(=O)CCO)CC2)nc1-c1cnc(N)c(-c2nnc(C(C)(C)C)o2)n1 [AZD-8835] | 6.01 |  | no | 63.43 | ABL1 SDR pSDR50 [1]: 4.80; EC50 [1, 6]: 17.6 µM
CC(C)CCN1c2nc(Nc3cc(F)c(O)c(F)c3)ncc2N(C)C(=O)C1C (centres unmarked) [BI-D1870] | -9.75 |  | no | -47.47 | ABL1 SDR pSDR50 [1]: 5.36; EC50 [1, 6]: 4.72 µM
CCN1C(=O)CNc2ncc(-c3ccc(-c4nc[nH]n4)nc3C)nc21 [CC-115] | -2.34 |  | no | 31.14 | 
Cc1nc2ccc(-n3ncc(C(=O)c4cc5ccccc5[nH]4)c3N)cc2[nH]1 [CH-5183284] | 4.01 | 37.79 | no |  | ABL1 SDR pSDR50 [1]: 5.61; EC50 [1, 7]: 2.51 µM
Nc1nc(NCCNc2ncc(-n3ccnc3)c(-c3ccc(Cl)cc3Cl)n2)ccc1[N+](=O)[O-] [CT-98014] |  | -28.48 |  |  | Annotated PKA activity (PKA): no; EC50 (PKA-N-HiBiT): 11.7 µM; SDR Ave Max Response (PKA-N-HiBiT): -28.99; EC50 (PKA-N-HiBiT; read-out: PKA SDR Ave SDR50): 12.9 µM; ABL1 SDR pSDR50 [1]: 4.54; EC50 [1, 7]: 33.8 µM
Cc1ncc(NC(=O)c2ccc(CN3CCN(C)CC3)c(C(F)(F)F)c2)cc1Nc1nccc(-c2cccnc2)n1 [Flumatinib] | 7.84 | 74.04 | no |  | 
CC1(C)OCCn2c1nc1c(N3CCOCC3)nc(-c3cnc(N)nc3)nc12 [GDC-0084] | 3.97 |  | no | 58.32 | ABL1 SDR pSDR50 [1]: 5.16; EC50 [1, 6]: 7.07 µM
